This passage reports pest or weed control, inhibition and melting point results from patent publication US20210269426A1, “MICROBIOCIDAL OXADIAZOLE DERIVATIVES” (SYNGENTA CROP PROTECTION AG, priority 2018, published 2021).

The subject of data set [1] is Puccinia recondita f. Sp. Tritici. Put plainly: Puccinia recondita f. sp. tritici / wheat / leaf disc preventative (brown rust). Type of data set: in vivo. The following applies: foliar, 200 ppm in the applied formulation, wheat leaf segments cv. Kanzler, inoculated 1 day after application, assessed 7 to 9 days after application, read-out: disease control. The method, then:
Leaf disks or leaf segments of various plant species are cut from plants grown in a greenhouse. The cut leaf disks or segments are placed in multiwell plates (24-well format) onto water agar. The leaf disks are sprayed with a test solution before (preventative) or after (curative) inoculation. Compounds to be tested are prepared as DMSO solutions (max. 10 mg/ml) which are diluted to the appropriate concentration with 0.025% Tween20 just before spraying. The inoculated leaf disks or segments are incubated under defined conditions (temperature, relative humidity, light, etc.) according to the respective test system. A single evaluation of disease level is carried out 3 to 14 days after inoculation, depending on the pathosystem. Percent disease control relative to the untreated check leaf disks or segments is then calculated. Wheat leaf segments cv. Kanzler were placed on agar in multiwell plates (24-well format) and sprayed with the formulated test compound diluted in water. The leaf disks were inoculated with a spore suspension of the fungus 1 day after application. The inoculated leaf segments were incubated at 19° C. and 75% relative humidity (rh) under a light regime of 12 hours light/12 hours darkness in a climate cabinet and the activity of a compound was assessed as percent disease control compared to untreated when an appropriate level of disease damage appears in untreated check leaf segments (7 to 9 days after application). The following compounds at 200 ppm in the applied formulation give at least 80% disease control in this test when compared to untreated control leaf disks under the same conditions, which show extensive disease development.

Data set [2] deals with Glomerella lagenarium (Colletotrichum lagenarium). Kind of data set: Glomerella lagenarium (Colletotrichum lagenarium) liquid culture / cucumber / preventative (anthracnose). Type of data set: cell-based. To be noted: Colletotrichum orbiculare; 20 ppm in the applied formulation; liquid culture in PDB, 24° C., 3 to 4 days after application; read-out: disease control (inhibition of growth, photometric). The method, then: Mycelia fragments or conidia suspensions of a fungus prepared either freshly from liquid cultures of the fungus or from cryogenic storage, are directly mixed into nutrient broth. DMSO solutions of the test compound (max. 10 mg/ml) are diluted with 0.025% Tween20 by a factor of 50 and 10 μl of this solution is pipetted into a microtiter plate (96-well format). The nutrient broth containing the fungal spores/mycelia fragments is then added to give an end concentration of the tested compound. The test plates are incubated in the dark at 24° C. and 96% relative humidity. The inhibition of fungal growth is determined photometrically after 2 to 7 days, depending on the pathosystem, and percent antifungal activity relative to the untreated check is calculated.
Conidia of the fungus from cryogenic storage are directly mixed into nutrient broth (PDB—potato dextrose broth). After placing a (DMSO) solution of test compound into a microtiter plate (96-well format), the nutrient broth containing the fungal spores is added. The test plates are incubated at 24° C. and the inhibition of growth is measured photometrically 3 to 4 days after application.
The following compounds at 20 ppm in the applied formulation give at least 80% disease control in this test when compared to untreated control under the same conditions, which show extensive disease development.

What is called inhibition is the percentage by which the read-out fell short of the control. Consider `CON(C)C(=O)C(=O)c1ccc(-c2noc(C(F)(F)F)n2)s1` [Compound 1.4, N-methoxy-N-methyl-2-oxo-2-[5-[5-(trifluoromethyl)-1,2,4-oxadiazol-3-yl]-2-thienyl]acetamide], for which, in data set [1], the pest or weed control at 200 ppm is ≥ 80%. In data set [2], the inhibition at 20 ppm is ≥ 80%.

As a reminder, the melting point is the temperature of the solid-liquid transition. Compound `CCNC(=O)C(=O)c1ccc(-c2noc(C(F)(F)F)n2)s1` [Compound 1.6, N-ethyl-2-oxo-2-[5-[5-(trifluoromethyl)-1,2,4-oxadiazol-3-yl]-2-thienyl]acetamide] came in with a melting point of 142.7 to 144.6 °C. Further, in data set [1], the pest or weed control at 200 ppm was ≥ 80%. Also, the inhibition at 20 ppm in data set [2] is ≥ 80%.

`CONC(=O)C(=O)c1ccc(-c2noc(C(F)(F)F)n2)s1` [Compound 1.5, N-methoxy-2-oxo-2-[5-[5-(trifluoromethyl)-1,2,4-oxadiazol-3-yl]-2-thienyl]acetamide]: the melting point lay in the range of 109.7 to 112.1 °C. For the same compound, in data set [1], the pest or weed control at 200 ppm was ≥ 80%. Moreover, in data set [2], the inhibition at 20 ppm was ≥ 80%.

On to `O=C(NCc1ccccc1Cl)C(=O)c1ccc(-c2noc(C(F)(F)F)n2)s1` [Compound 1.1, N-[(2-chlorophenyl)methyl]-2-oxo-2-[5-[5-(trifluoromethyl)-1,2,4-oxadiazol-3-yl]-2-thienyl]acetamide], for which the melting point lay in the range of 94 to 95.2 °C. Besides, the pest or weed control at 200 ppm in data set [1] is ≥ 80%. The inhibition at 20 ppm in data set [2] was ≥ 80%.

`COCCNC(=O)C(=O)c1ccc(-c2noc(C(F)(F)F)n2)s1` [Compound 1.2, N-(2-methoxyethyl)-2-oxo-2-[5-[5-(trifluoromethyl)-1,2,4-oxadiazol-3-yl]-2-thienyl]acetamide] yielded a melting point of 106 to 107.1 °C. Further, in data set [1], the pest or weed control at 200 ppm is ≥ 80%. The inhibition at 20 ppm in data set [2] was ≥ 80%.

`CNC(=O)C(=O)c1ccc(-c2noc(C(F)(F)F)n2)s1` [Compound 1.7, N-methyl-2-oxo-2-[5-[5-(trifluoromethyl)-1,2,4-oxadiazol-3-yl]-2-thienyl]acetamide] had a melting point of 96.2 to 98.7 °C. For the same compound, in data set [1], the pest or weed control at 200 ppm was ≥ 80%. Further, the inhibition at 20 ppm in data set [2] is ≥ 80%.

`CN(C)C(=O)C(=O)c1ccc(-c2noc(C(F)(F)F)n2)s1` [Compound 1.3, N,N-dimethyl-2-oxo-2-[5-[5-(trifluoromethyl)-1,2,4-oxadiazol-3-yl]-2-thienyl]acetamide] displayed a melting point of 88.4 to 89.4 °C. Further, in data set [1], the pest or weed control at 200 ppm was ≥ 80%. Moreover, the inhibition at 20 ppm in data set [2] is ≥ 80%.

In turn, `O=C(NC1CC1)C(=O)c1ccc(-c2noc(C(F)(F)F)n2)s1` [Compound 1.8, N-cyclopropyl-2-oxo-2-[5-[5-(trifluoromethyl)-1,2,4-oxadiazol-3-yl]-2-thienyl]acetamide] gave a melting point of 122.1 to 126.7 °C. Also, the pest or weed control at 200 ppm in data set [1] was ≥ 80%. In addition, the inhibition at 20 ppm in data set [2] is ≥ 80%.
